Converted amounts (≈) assume the structure as drawn. Where two headings read alike, the source gives them in different places. *1 amine or outer side, *2 acyl side, *3 side chain or, on linkers, in order; H or OH if unused. Where a SMILES comes first, the peptide text is derived from it. [ ]: non-standard residue; d: D form. The star is where a group is joined. boroAla((+)-pinanediol) = C[C@H](N*)B1O[C@@H]2C[C@@H]3C[C@@H](C3(C)C)[C@]2(C)O1; Benzoyl(4-(4-Cl-Ph)) = O=C(c1ccc(-c2ccc(Cl)cc2)cc1)*; Ethanesulfonyl(2-NHDecyl) = CCCCCCCCCCNCCS(=O)(=O)*; Propanoyl(3-decylamino) = CCCCCCCCCCNCCC(=O)*; X18 = CCCCc1ccc(-c2ccc(S(=O)(=O)*)cn2)cc1; X27 = CCCCCCCCN1CCN([*:1])C(C(=O)[*:2])C1; X34 = CCCCc1ccc(-c2ccc(S(=O)(=O)*)cc2)cc1; X21 = O=S(=O)(c1ccc(-c2ccc(Cl)cc2)nc1)*; X30 = CCCCc1ccc(-c2ncc(C(=O)*)cn2)cc1; AlaCOCOOMe = COC(=O)C(=O)[C@H](C)N*; X25 = C[C@H](N*)C(=O)c1ncc(C#N)o1; Myristoyl = CCCCCCCCCCCCCC(=O)*; NDecylGly = CCCCCCCCCCNCC(=O)O; X19 = CCCCCCCCCCN(C)CCC(=O)*; X22 = C[C@H](N*)C(=O)C(=O)O; X37 = C[C@H](N*)B1OCCNCCO1; X17 = CCCCCCCCCNCCCC(=O)*; X7 = C[C@H](N*)C(=O)C1CO1; boroAla = C[C@H](N*)B(O)O; Dab = NCC[C@H](N)C(=O)O; Dap = NC[C@H](N)C(=O)O
How the values were obtained:
[1] = tested on: methicillin resistant Staphylococcus aureus (MRSA) strain USA300 (NRS384)
Procedure: (§1) In vitro antimicrobial activity of each compound was determined by measuring minimal inhibitor concentrations (MICs) using the broth micro-dilution technique as approved by the Clinical and Laboratory Standards Institute (CLSI). Antibacterial activity was measure against two strains of bacteria: 1) methicillin resistant Staphylococcus aureus (MRSA) strain USA300 (NRS384) and 2) Escherichia coli strain MC4100 IMP-4213, which harbors an LptD mutation. Bacterial inocula were prepared by scraping cells into 1 mL of testing media (cation adjusted Mueller Hinton Broth supplemented with 0.002% v/v Tween-80) and diluting to a final OD600nm of 0.01.
(§2) Test compounds were prepared in DMSO at a concentration of 10 mg/ml. These compound stocks were diluted into testing media at a concentration of 64 μg/ml and 9 serial 1:2 dilutions were made in the same media, in 96-well U bottom microtiter dishes. Bacterial inocula were added to the two fold serial dilutions of test compounds to a final density of OD OD600nm of 0.0005 and incubated stationarily at 35° C. for 22 hours, after which the plates were examined visually.

[2] = tested on: Escherichia coli strain MC4100 IMP-4213, which harbors an LptD mutation; details: E. coli MC4100 IMP-4213; 35° C., 22 hours
Procedure: as §1, §2

[3] = MRSA USA300 (NRS384), 35° C., 22 hours

Compound | MIC (μg/mL) S. aureus [1, 3] [µg/mL] | MIC (μg/mL) E. coli [2] [µg/mL] | MIC (μg/mL) S. aureus ([1]; USA300, 22 h) [µg/mL]
CCCCCCCCCCNCC(=O)N[C@H](C(=O)N[C@@H](C)C(=O)N[C@@H](CCCCN)C(=O)N[C@@H](C)B1O[C@@H]2C[C@@H]3C[C@@H](C3(C)C)[C@]2(C)O1)[C@@H](C)O [Compound 229] (H-[NDecylGly]TAK-{boroAla((+)-pinanediol)}) | 1.3 (≈ 1.8 µM) | 64 (≈ 88.8 µM) | 
CCCCc1ccc(-c2ccc(S(=O)(=O)N[C@@H](CCCCN)C(=O)N[C@H](C(=O)N[C@@H](C)C(=O)N[C@@H](CCCCN)C(=O)N[C@@H](C)B3O[C@@H]4C[C@@H]5C[C@@H](C5(C)C)[C@]4(C)O3)[C@@H](C)O)cc2)cc1 [Compound 236] (X34-KTAK-{boroAla((+)-pinanediol)}) | 0.5 (≈ 0.541 µM) | 16 (≈ 17.3 µM) | 
CCCCCCCCCCNCCC(=O)N[C@@H](CCCCN)C(=O)N[C@H](C(=O)N[C@@H](C)C(=O)N[C@@H](CCCCN)C(=O)N[C@@H](C)B(O)O)[C@@H](C)O [Compound 218] ({Propanoyl(3-decylamino)}-KTAK-boroAla) |  | >64 | 2.1 (≈ 2.88 µM)
C[C@H](NC(=O)[C@@H](NC(=O)[C@H](CCN)NC(=O)c1ccc(-c2ccc(Cl)cc2)cc1)[C@@H](C)O)C(=O)N[C@@H](CCCCN)C(=O)N[C@@H](C)C(=O)C1CO1 (stereo partly shown) [Compound 216] ({Benzoyl(4-(4-Cl-Ph))}-[Dab]TAK-X7) |  | 16 (≈ 21.9 µM) | 1 (≈ 1.37 µM)
CCCCCCCCCCNCCC(=O)N[C@@H](CCCCN)C(=O)N[C@@H](CCC(=O)O)C(=O)N[C@@H](C)C(=O)N[C@@H](CCCCN)C(=O)N[C@@H](C)B1O[C@@H]2C[C@@H]3C[C@@H](C3(C)C)[C@]2(C)O1 [Compound 223] ({Propanoyl(3-decylamino)}-KEAK-{boroAla((+)-pinanediol)}) | 4 (≈ 4.49 µM) | 64 (≈ 71.8 µM) | 
CCCCCCCCCCNCCS(=O)(=O)N[C@@H](CCN)C(=O)N[C@H](C(=O)N[C@@H](C)C(=O)N[C@@H](CCCCN)C(=O)N[C@@H](C)B1O[C@@H]2C[C@@H]3C[C@@H](C3(C)C)[C@]2(C)O1)[C@@H](C)O [Compound 239] ({Ethanesulfonyl(2-NHDecyl)}-[Dab]TAK-{boroAla((+)-pinanediol)}) | 0.25 (≈ 0.287 µM) | 4 (≈ 4.59 µM) | 
CCCCCCCCCCNCCC(=O)N[C@@H](CCCCN)C(=O)N[C@H](C(=O)N[C@@H](C)C(=O)N[C@@H](CCN)C(=O)N[C@@H](C)C(=O)C(=O)O)[C@@H](C)O [Compound 255] ({Propanoyl(3-decylamino)}-KTA[Dab]-X22) |  | >64 | 11 (≈ 15.1 µM)
CCCCCCCCCCNCCC(=O)N[C@@H](CCCCN)C(=O)N[C@H](C(=O)N[C@@H](C)C(=O)N[C@@H](CCN)C(=O)N[C@@H](C)C(=O)C(=O)OC)[C@@H](C)O [Compound 254] ({Propanoyl(3-decylamino)}-KTA[Dab]-AlaCOCOOMe) |  |  | 16 (≈ 21.5 µM)
CCCCc1ccc(-c2ncc(C(=O)N[C@@H](CCN)C(=O)N[C@H](C(=O)N[C@@H](C)C(=O)N[C@@H](CCCCN)C(=O)N[C@@H](C)B3O[C@@H]4C[C@@H]5C[C@@H](C5(C)C)[C@]4(C)O3)[C@@H](C)O)cn2)cc1 [Compound 270] (X30-[Dab]TAK-{boroAla((+)-pinanediol)}) | 0.25 (≈ 0.29 µM) | 0.25 (≈ 0.29 µM) | 
CCCCCCCCCCNCCC(=O)N[C@@H](CN)C(=O)N[C@H](C(=O)N[C@@H](C)C(=O)N[C@@H](CCCCN)C(=O)N[C@@H](C)B(O)O)[C@@H](C)O [Compound 220] ({Propanoyl(3-decylamino)}-[Dap]TAK-boroAla) |  | 16 (≈ 23.3 µM) | 1 (≈ 1.46 µM)
CCCCCCCCCCCCCC(=O)N[C@@H](CCN)C(=O)N[C@H](C(=O)N[C@@H](C)C(=O)N[C@@H](CCCCN)C(=O)N[C@@H](C)B1O[C@@H]2C[C@@H]3C[C@@H](C3(C)C)[C@]2(C)O1)[C@@H](C)O [Compound 272] (Myristoyl-[Dab]TAK-{boroAla((+)-pinanediol)}) | 0.13 (≈ 0.156 µM) | 0.13 (≈ 0.156 µM) | 
CCCCc1ccc(-c2ccc(S(=O)(=O)N[C@@H](CCN)C(=O)N[C@H](C(=O)N[C@@H](C)C(=O)N[C@@H](CCCCN)C(=O)N[C@@H](C)B3O[C@@H]4C[C@@H]5C[C@@H](C5(C)C)[C@]4(C)O3)[C@@H](C)O)cn2)cc1 [Compound 232] (X18-[Dab]TAK-{boroAla((+)-pinanediol)}) | 1.5 (≈ 1.67 µM) | 11 (≈ 12.3 µM) | 
CCCCCCCCCNCCCC(=O)N[C@@H](CCCCN)C(=O)N[C@H](C(=O)N[C@@H](C)C(=O)N[C@@H](CCCCN)C(=O)N[C@@H](C)B1O[C@@H]2C[C@@H]3C[C@@H](C3(C)C)[C@]2(C)O1)[C@@H](C)O [Compound 227] (X17-KTAK-{boroAla((+)-pinanediol)}) |  | 64 (≈ 74.2 µM) | 2 (≈ 2.32 µM)
CCCCCCCCN1CCNC(C(=O)N[C@@H](CCCCN)C(=O)N[C@H](C(=O)N[C@@H](C)C(=O)N[C@@H](CCCCN)C(=O)N[C@@H](C)B2O[C@@H]3C[C@@H]4C[C@@H](C4(C)C)[C@]3(C)O2)[C@@H](C)O)C1 (stereo partly drawn) [Compound 279] (H-[X27]KTAK-{boroAla((+)-pinanediol)}) | 10 (≈ 11.4 µM) | >64 | 
C[C@H](NC(=O)[C@H](CCCCN)NC(=O)[C@H](C)NC(=O)[C@@H](NC(=O)[C@H](CCN)NS(=O)(=O)c1ccc(-c2ccc(Cl)cc2)nc1)[C@@H](C)O)B(O)O [Compound 235] (X21-[Dab]TAK-boroAla) | 16 (≈ 21.6 µM) | 32 (≈ 43.2 µM) | 
C[C@H](NC(=O)[C@@H](NC(=O)[C@H](CN)NC(=O)c1ccc(-c2ccc(Cl)cc2)cc1)[C@@H](C)O)C(=O)N[C@@H](CCCCN)C(=O)N[C@@H](C)C(=O)c1ncc(C#N)o1 [Compound 266] ({Benzoyl(4-(4-Cl-Ph))}-[Dap]TAK-X25) | 23 (≈ 30 µM) | 16 (≈ 20.9 µM) | 
CCCCCCCCCCNCCC(=O)N[C@@H](CCCCN)C(=O)N[C@H](C(=O)N[C@@H](C)C(=O)N[C@@H](CCCCN)C(=O)N[C@@H](C)C(=O)C(=O)O)[C@@H](C)O [Compound 249] ({Propanoyl(3-decylamino)}-KTAK-X22) |  | >64 | 0.71 (≈ 0.938 µM)
CCCCCCCCCCNCCC(=O)N[C@@H](CCCCN)C(=O)N[C@@H](CC(=O)O)C(=O)N[C@@H](C)C(=O)N[C@@H](CCCCN)C(=O)N[C@@H](C)B1O[C@@H]2C[C@@H]3C[C@@H](C3(C)C)[C@]2(C)O1 [Compound 224] ({Propanoyl(3-decylamino)}-KDAK-{boroAla((+)-pinanediol)}) | 11 (≈ 12.5 µM) | >64 | 
CCCCCCCCCCN(C)CCC(=O)N[C@@H](CCCCN)C(=O)N[C@H](C(=O)N[C@@H](C)C(=O)N[C@@H](CCCCN)C(=O)N[C@@H](C)B1O[C@@H]2C[C@@H]3C[C@@H](C3(C)C)[C@]2(C)O1)[C@@H](C)O [Compound 240] (X19-KTAK-{boroAla((+)-pinanediol)}) | 1.4 (≈ 1.6 µM) | 32 (≈ 36.5 µM) | 
COC(=O)C(=O)[C@H](C)NC(=O)[C@H](CCCCN)NC(=O)[C@H](C)NC(=O)[C@@H](NC(=O)[C@H](CCN)NC(=O)c1ccc(-c2ccc(Cl)cc2)cc1)[C@@H](C)O [Compound 246] ({Benzoyl(4-(4-Cl-Ph))}-[Dab]TAK-AlaCOCOOMe) | 2.3 (≈ 3.08 µM) | >64 | 
CCCCCCCCCCNCCC(=O)N[C@@H](CCCCN)C(=O)N[C@H](C(=O)N[C@@H](C)C(=O)N[C@@H](CN)C(=O)N[C@@H](C)C(=O)C(=O)O)[C@@H](C)O [Compound 257] ({Propanoyl(3-decylamino)}-KTA[Dap]-X22) |  | >64 | 11 (≈ 15.4 µM)
CCCCCCCCCCNCCS(=O)(=O)N[C@@H](CCCCN)C(=O)N[C@H](C(=O)N[C@@H](C)C(=O)N[C@@H](CCCCN)C(=O)N[C@@H](C)C(=O)C(=O)OC)[C@@H](C)O [Compound 250] ({Ethanesulfonyl(2-NHDecyl)}-KTAK-AlaCOCOOMe) |  | >64 | 0.5 (≈ 0.62 µM)
CCCCCCCCCCNCCC(=O)N[C@@H](CCN)C(=O)N[C@H](C(=O)N[C@@H](C)C(=O)N[C@@H](CCCCN)C(=O)N[C@@H](C)B(O)O)[C@@H](C)O [Compound 219] ({Propanoyl(3-decylamino)}-[Dab]TAK-boroAla) |  | 16 (≈ 22.8 µM) | 1 (≈ 1.43 µM)
C[C@H](NC(=O)[C@H](CCCCN)NC(=O)[C@H](C)NC(=O)[C@@H](NC(=O)[C@H](CCN)NC(=O)c1ccc(-c2ccc(Cl)cc2)cc1)[C@@H](C)O)B1OCCNCCO1 [Compound 131] ({Benzoyl(4-(4-Cl-Ph))}-[Dab]TAK-X37) | 1 (≈ 1.29 µM) |  | 

From patent US20160194358A1, “LINEAR PEPTIDE ANTIBIOTCS” (priority 2013, published 2016)
